Assay [1] has as its target T1, cysteine-substituted TMC1 constructs (Mus musculus, UniProt Q8R4P5, G411C).
T1 construct: control full-length TMC1 (TMC1_WT); expressed in transfected cells; host or cells: Tmc1-knockout mouse OHCs, injectoporation
T1 sequence (Q8R4P5 1-757 G411C): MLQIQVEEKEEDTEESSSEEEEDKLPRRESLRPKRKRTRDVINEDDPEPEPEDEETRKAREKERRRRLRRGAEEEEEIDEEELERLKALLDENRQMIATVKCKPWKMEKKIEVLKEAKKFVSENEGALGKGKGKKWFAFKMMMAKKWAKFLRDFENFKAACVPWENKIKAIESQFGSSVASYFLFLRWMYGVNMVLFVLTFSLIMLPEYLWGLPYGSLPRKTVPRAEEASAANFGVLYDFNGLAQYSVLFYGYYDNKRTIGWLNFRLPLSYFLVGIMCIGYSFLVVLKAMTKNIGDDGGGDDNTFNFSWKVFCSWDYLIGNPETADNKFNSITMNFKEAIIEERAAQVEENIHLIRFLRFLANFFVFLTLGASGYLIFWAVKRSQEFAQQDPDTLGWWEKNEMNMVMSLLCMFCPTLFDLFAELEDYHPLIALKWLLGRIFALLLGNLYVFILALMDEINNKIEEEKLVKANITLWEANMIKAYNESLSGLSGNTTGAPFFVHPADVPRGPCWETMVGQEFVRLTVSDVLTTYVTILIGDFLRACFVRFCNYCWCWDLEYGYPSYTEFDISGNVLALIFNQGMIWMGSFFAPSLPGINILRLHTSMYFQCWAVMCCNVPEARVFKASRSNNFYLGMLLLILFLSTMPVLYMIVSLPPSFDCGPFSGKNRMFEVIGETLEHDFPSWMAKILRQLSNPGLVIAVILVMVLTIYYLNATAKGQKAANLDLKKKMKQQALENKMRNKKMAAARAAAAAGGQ
In words: Background current before and after MTSET treatment in Tmc1-knockout OHCs expressing cysteine-substituted TMC1. It counts as cell-based. The following applies: Tmc1-knockout OHCs expressing TMC1-G411C, individual cells. As for the experimental part:
(§1) Mouse Tmc1 and Tmc2 cDNAs were cloned into CMV-Script and pCDNA3.1- vectors, respectively. To obtain the Tmc1-deafness vector and amino-acid-substituted Tmc1 constructs, specific primers were designed and used for PCR (Supplementary File 1). […] In brief, the organ of Corti was isolated from P3 mice and cut into three pieces in Dulbecco’s modified Eagle’s medium/F12 with 1.5 μg/ml ampicillin. For electroporation, a glass pipette (2 μm tip diameter) was used to deliver cDNA plasmids (0.2 μg/μl in 1 × Hanks' balanced salt solution) to hair cells in the sensory epithelium. EGFP was used as an indicator for the selection of transfected hair cells. A series of three pulses at 60 V lasting 15 ms at 1 s intervals was applied to cochlear tissues by an electroporator (ECM Gemini X2, BTX, CA). The cochlear tissues were cultured for 1 day in vitro and then used for electrophysiological recording.
(§2) All experiments were performed at room temperature (20–25°C). Briefly, the basilar membrane with hair cells was acutely dissected from neonatal mice. […] The acutely isolated or cultured basilar membrane was used for electrophysiological recording within 1 h. […] Hair cells were recorded with a patch-clamp amplifier (EPC 10 USB and Patchmaster software, HEKA Elektronik, Lambrecht/Pfalz, Germany).
(§3) The sampling rate was 1 kHz for leak current recording, 50 kHz for the IV protocol and current-clamp recording, and 100 kHz for unitary channel recording. The voltage-clamp used a –70 mV holding potential, and the current-clamp was held at 0 pA. Only recordings with a current baseline <20 pA in NMDG solution were used for statistical analysis.

Assay [2] has as its target T2, cysteine-substituted TMC1 constructs (Mus musculus, UniProt Q8R4P5, T532C).
T2 construct: control full-length TMC1 (TMC1_WT); expressed in transfected cells; host or cells: Tmc1-knockout mouse OHCs, injectoporation
T2 sequence (Q8R4P5 1-757 T532C): T1 sequence (Q8R4P5 1-757 G411C) with C411G, T532C
Described as above. It counts as cell-based. The following applies: Tmc1-knockout OHCs expressing TMC1-T532C, individual cells. As for the experimental part: as §1, §2, §3

The structures appear in SMILES notation. Positions count from the first letter of the chain named. Where “and” joins values, the source holds several entries; their conditions need not be identical. Identical values can stand only once.

As for `C[N+](C)(C)CCSS(C)(=O)=O.[Br-]` [MTSET, 2-(trimethylammonium)ethyl methanethiosulfonate, bromide], the “amplitude of the background current after MTSET treatment” value in assay [1] is -17.5539 and -22.5978 and -20.1413 and -23.0553 and -21.6542; in assay [2] it was -61.9555 and -32.5794 and -12.1284 and -34.0535 and -31.604.

The record behind these values is publication PMC6853638, “TMC1 is an essential component of a leak channel that modulates tonotopy and excitability of auditory hair cells in mice” (eLife, 2019).
